Test [1] deals with T1, human 5-HT4b receptor (Homo sapiens, UniProt Q13639).
T1 construct: expressed in transfected cells; host or cells: CHO cells (G418 selection)
As to the kind of experiment: Test Example 4: Serotonin 4 (5-HT4) receptor agonist activity assay, cAMP HTRF in CHO cells (Table 100). The following applies: mean value; for Emax: CHO, 0.25 h, intrinsic activity, maximal activity of 5-HT defined as 100%, read-out: IA (%); for EC50: concentration showing 50% of IA. The class given is cell-based. Summed up: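 Read-out is HTRF cAMP (time-resolved fluorescence 620/665 nm after 1 h RT with cAMP-cryptate and cAMP-d2), from recombinant CHO cells bearing human 5-HT4b treated with compound 15 min at 31° C. in Hanks/HEPES buffer pH 7.4. IA (%) scaled to peak 5-HT effect over 10^−11–10^−7 M; EC50 is concentration giving half that IA.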
(In TR-FRET formats the signal depends on donor and acceptor labels being close together.)

For test [2], the target named is T2, Human 5-HT4 receptor (5-HT4b) (Homo sapiens, UniProt Q13639).
T2 construct: expressed in transfected cells; membrane preparation
As to the kind of experiment: Test Example 3: Human 5-HT4 receptor binding assay, membranes of CHO-K1 cells stably expressing 5-HT4b receptors (Table 99). The following applies: mean value of each group. The procedure: To an assay tube were added 0.1 nM [^3H]-GR113808 {chemical name: [1-[2-(methylsulfonylamino) ethyl]-4-piperidinyl]methyl 1-methylindole-3-carboxylate}, receptor membrane preparations, and Hepes buffer (50 mM, pH 7.4, 4° C., 1 ml) containing test compounds or 30 μM serotonin; and the mixture was incubated at 37° C. for 30 minutes. On quenching the reaction, the mixture was rapidly filtered on whatman GF/B filter, which was presoaked in 0.1% polyethyleneimine for 1 hour, by using Brandel cell Harvester, and washed with ice-cooled 50 mM Tris-HCl (pH 7.7, 4 ml) three times. To the filter after filtration was added a liquid scintillator (Ecoscint), and then a radioactivity was determined by a liquid scintillation counter.
50% Inhibition concentrations (IC50) were determined from inhibition rates of test compounds to specific bindings which were obtained by subtracting nonspecific bindings from total binding amounts of [^3H]-GR113808.
Human 5-HT4 receptor membrane preparations were prepared from CHO-K^1 cells which stably express 5-HT4b receptors, and human 5-HT4 receptor binding assay was carried out in a similar manner as in the guinea pig 5-HT4 receptor binding assay. The following tables show results of serotonin 4 (5-HT4) receptor binding assay. In the following tables, the compounds used in the test are shown in numbers which correspond to the Example numbers above where the preparations of the compounds are described.

T1 sequence (Q13639 whole entry): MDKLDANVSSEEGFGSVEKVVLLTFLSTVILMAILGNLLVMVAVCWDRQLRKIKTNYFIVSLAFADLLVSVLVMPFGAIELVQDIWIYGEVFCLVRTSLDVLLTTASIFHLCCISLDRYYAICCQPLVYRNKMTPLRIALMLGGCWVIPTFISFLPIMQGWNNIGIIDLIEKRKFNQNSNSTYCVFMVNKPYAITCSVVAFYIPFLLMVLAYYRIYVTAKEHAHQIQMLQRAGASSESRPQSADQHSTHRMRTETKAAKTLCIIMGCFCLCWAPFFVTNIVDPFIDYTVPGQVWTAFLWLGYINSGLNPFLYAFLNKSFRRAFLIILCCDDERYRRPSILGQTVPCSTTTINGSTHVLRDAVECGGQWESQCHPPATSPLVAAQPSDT
T2 sequence (Q13639 whole entry): as above

On to `CC(C)c1nn(-c2noc([C@H]3C[C@@H](NCC4CCCO4)C3)n2)c2c(F)cccc12` (relative stereo) [Example 596, cis-3-{3-[7-fluoro-3-(propan-2-yl)-1H-indazol-1-yl]-1,2,4-oxadiazol-5-yl}-N-(tetrahydrofuran-2-ylmethyl)cyclobutanamine], for which, in test [1], the Emax came out at 82% and the response was half-maximal at 4.1 nM (EC50). The IC50 in test [2] is less than 20 nM.

For the compound `CC(C)c1nn(-c2noc([C@H]3CC[C@@H](NC4CCN(S(C)(=O)=O)C4)CC3)n2)c2c(F)cccc12` (relative stereo) [Example 616, N-(cis-4-{3-[7-fluoro-3-(propan-2-yl)-1H-indazol-1-yl]-1,2,4-oxadiazol-5-yl}cyclohexyl)-1-(methylsulfonyl)pyrrolidin-3-amine], in test [1], the Emax worked out at 105% and the concentration giving a half-maximal response (EC50) was determined as 13 nM. In addition, the IC50 in test [2] is less than 20 nM.

Take `CC(=O)N1CCC(N2C3CCC2CC(c2nc(-n4nc(C(C)C)c5cccc(F)c54)no2)C3)CC1` (stereo not drawn) [Example 419, 1-{4-[3-{3-[7-fluoro-3-(propan-2-yl)-1H-indazol-1-yl]-1,2,4-oxadiazol-5-yl}-8-azabicyclo[3.2.1]oct-8-yl]piperidin-1-yl}ethanone]: in test [1], the Emax was 110% and a half-maximal effect (EC50) was put at 10.4 nM. For the same compound, the half-maximal inhibitory concentration (IC50) in test [2] came to 63.8 nM.

Regarding `CC(=O)N1CCC(C)(N2CCC(c3nc(-n4nc(C(C)C)c5cccc(F)c54)no3)CC2)CC1` [Example 487, 1-(4-{3-[7-fluoro-3-(propan-2-yl)-1H-indazol-1-yl]-1,2,4-oxadiazol-5-yl}-4′-methyl-1,4′-bipiperidin-1′-yl)ethanone], in test [1], the Emax was found to be 70% and the EC50 came to 3.2 nM. The same compound registered an IC50 in test [2] of less than 20 nM.

`CC(C)c1nn(-c2noc(C3CCN(C4(C)CCN(S(C)(=O)=O)CC4)CC3)n2)c2c(F)cccc12` [Example 488, 4-{3-[7-fluoro-3-(propan-2-yl)-1H-indazol-1-yl]-1,2,4-oxadiazol-5-yl}-4′-methyl-1′-(methylsulfonyl)-1,4′-bipiperidine]: in test [1], the Emax was determined as 106% and the EC50 was found to be 2.9 nM. The half-inhibitory concentration (IC50) in test [2] was less than 20 nM.

As for `CC(C)c1nn(-c2noc(C3CCN(C4(C)CCN(C(=O)N(C)C)CC4)CC3)n2)c2c(F)cccc12` [Example 489, 4-{3-[7-fluoro-3-(propan-2-yl)-1H-indazol-1-yl]-1,2,4-oxadiazol-5-yl}-N,N,4′-trimethyl-1,4′-bipiperidine-1′-carboxamide], in test [1], the Emax came out at 104% and the EC50 was determined as 2.5 nM. This compound also displayed an IC50 in test [2] of less than 20 nM.

For the compound `COCC(=O)N1CCC(C)(N2CCC(c3nc(-n4nc(C(C)C)c5cccc(F)c54)no3)CC2)CC1` [Example 490, 1-(4-{3-[7-fluoro-3-(propan-2-yl)-1H-indazol-1-yl]-1,2,4-oxadiazol-5-yl}-4′-methyl-1,4′-bipiperidin-1′-yl)-2-methoxyethanone], in test [1], the Emax is 111% and the EC50 was 1.6 nM. The compound further returned an IC50 in test [2] of less than 20 nM.

On to `CCc1nn(-c2noc(C3CCN(C4(C)CCN(C(C)=O)CC4)CC3)n2)c2c(F)cccc12` [Example 491, 1-{4-[3-(3-ethyl-7-fluoro-1H-indazol-1-yl)-1,2,4-oxadiazol-5-yl]-4′-methyl-1,4′-bipiperidin-1′-yl}ethanone], for which, in test [1], the Emax is 91% and the 50% effective concentration (EC50) is 4.4 nM. Also, the IC50 in test [2] is less than 20 nM.

As to `CCc1nn(-c2noc(C3CCN(C4(C)CCN(S(C)(=O)=O)CC4)CC3)n2)c2c(F)cccc12` [Example 492, 4-[3-(3-ethyl-7-fluoro-1H-indazol-1-yl)-1,2,4-oxadiazol-5-yl]-4′-methyl-1′-(methylsulfonyl)-1,4′-bipiperidine], in test [1], the Emax is 78% and the 50% effective concentration (EC50) came to 2.9 nM. This compound also showed a half-maximal inhibitory concentration (IC50) in test [2] of less than 20 nM.

For `CCc1nn(-c2noc(C3CCN(C4(C)CCN(C(=O)N(C)C)CC4)CC3)n2)c2c(F)cccc12` [Example 493, 4-[3-(3-ethyl-7-fluoro-1H-indazol-1-yl)-1,2,4-oxadiazol-5-yl]-N,N,4′-trimethyl-1,4′-bipiperidine-1′-carboxamide], in test [1], the Emax is 75% and the concentration for a half-maximal effect (EC50) stood at 1.5 nM. The compound further registered an IC50 in test [2] of less than 20 nM.

With `CCc1nn(-c2noc(C3CCN(C4(C)CCN(C(=O)COC)CC4)CC3)n2)c2c(F)cccc12` [Example 494, 1-{4-[3-(3-ethyl-7-fluoro-1H-indazol-1-yl)-1,2,4-oxadiazol-5-yl]-4′-methyl-1,4′-bipiperidin-1′-yl}-2-methoxyethanone], in test [1], the Emax was 72% and the EC50 was found to be 2.1 nM. In test [2], this compound gave a half-inhibitory concentration (IC50) of less than 20 nM.

As for `CC(C)c1nn(-c2noc(C[C@H]3CCN(C4CCN(S(C)(=O)=O)CC4)C3)n2)c2c(F)cccc12` [Example 496, 7-fluoro-1-[5-({(3R)-1-[1-(methylsulfonyl)piperidin-4-yl]pyrrolidin-3-yl}methyl)-1,2,4-oxadiazol-3-yl]-3-(propan-2-yl)-1H-indazole], in test [1], the Emax was 70% and a half-maximal response (EC50) required 2.2 nM. In test [2], this compound registered a half-inhibitory concentration (IC50) of less than 20 nM.

Regarding `CC(=O)N1CCC[C@H]1CN1CC[C@H](Cc2nc(-n3nc(C(C)C)c4cccc(F)c43)no2)C1` [Example 497, 1-[(2S)-2-{[(3R)-3-({3-[7-fluoro-3-(propan-2-yl)-1H-indazol-1-yl]-1,2,4-oxadiazol-5-yl}methyl)pyrrolidin-1-yl]methyl}pyrrolidin-1-yl]ethanone], in test [1], the Emax came to 88% and the EC50 is 5.8 nM. Besides, in test [2], the half-maximal inhibitory concentration (IC50) came to 76.1 nM.

In the case of `CC(C)c1nn(-c2noc(C[C@H]3CCN(C[C@@H]4CCCN4S(C)(=O)=O)C3)n2)c2c(F)cccc12` [Example 498, 7-fluoro-1-(5-{[(3R)-1-{[(2S)-1-(methylsulfonyl)pyrrolidin-2-yl]methyl}pyrrolidin-3-yl]methyl}-1,2,4-oxadiazol-3-yl)-3-(propan-2-yl)-1H-indazole], in test [1], the Emax came out at 36% and a half-maximal effect (EC50) was put at 3.4 nM. Also, the half-maximal inhibitory concentration (IC50) in test [2] is less than 20 nM.

With `CC(=O)N1CCC[C@@H]1CN1CC[C@H](Cc2nc(-n3nc(C(C)C)c4cccc(F)c43)no2)C1` [Example 499, 1-[(2R)-2-{[(3R)-3-({3-[7-fluoro-3-(propan-2-yl)-1H-indazol-1-yl]-1,2,4-oxadiazol-5-yl}methyl)pyrrolidin-1-yl]methyl}pyrrolidin-1-yl]ethanone], in test [1], the Emax was 82% and it took 7.8 nM to reach a half-maximal effect (EC50). Besides, the IC50 in test [2] came out at 48.6 nM.

As for `CC(C)c1nn(-c2noc(C[C@H]3CCN(C[C@H]4CCCN4S(C)(=O)=O)C3)n2)c2c(F)cccc12` [Example 500, 7-fluoro-1-(5-{[(3R)-1-{[(2R)-1-(methylsulfonyl)pyrrolidin-2-yl]methyl}pyrrolidin-3-yl]methyl}-1,2,4-oxadiazol-3-yl)-3-(propan-2-yl)-1H-indazole], in test [1], the Emax was 90% and a half-maximal effect (EC50) was put at 14.4 nM. This compound also came in with a 50% inhibitory concentration (IC50) in test [2] of less than 20 nM.

Take `CC(=O)N1CC(CN2CC[C@H](Cc3nc(-n4nc(C(C)C)c5cccc(F)c54)no3)C2)C1` [Example 501, 1-(3-{[(3R)-3-({3-[7-fluoro-3-(propan-2-yl)-1H-indazol-1-yl]-1,2,4-oxadiazol-5-yl}methyl)pyrrolidin-1-yl]methyl}azetidin-1-yl)ethanone]: in test [1], the Emax was 84% and it took 3.5 nM to reach a half-maximal effect (EC50). Moreover, the IC50 in test [2] was less than 20 nM.

Consider `CC(C)c1nn(-c2noc(C[C@H]3CCN(CC4CN(S(C)(=O)=O)C4)C3)n2)c2c(F)cccc12` [Example 502, 7-fluoro-1-(5-{[(3R)-1-{[1-(methylsulfonyl)azetidin-3-yl]methyl}pyrrolidin-3-yl]methyl}-1,2,4-oxadiazol-3-yl)-3-(propan-2-yl)-1H-indazole], for which, in test [1], the Emax stood at 70% and the EC50 stood at 3.5 nM. In test [2], this compound showed a 50% inhibitory concentration (IC50) of less than 20 nM.

Turning to `CC(C)c1nn(-c2noc(C3CCC(NCCC4CCCOC4)CC3)n2)c2c(F)cccc12` (stereo not drawn) [Example 619, 4-{3-[7-fluoro-3-(propan-2-yl)-1H-indazol-1-yl]-1,2,4-oxadiazol-5-yl}-N-[2-(tetrahydro-2H-pyran-3-yl)ethyl]cyclohexanamine], the IC50 in test [2] amounted to 39.2 nM.

In test [2], `COCCNC1CCC(c2nc(-n3nc(C(C)C)c4cccc(F)c43)no2)CC1` (stereo not drawn) [Example 621, 4-{3-[7-fluoro-3-(propan-2-yl)-1H-indazol-1-yl]-1,2,4-oxadiazol-5-yl}-N-(2-methoxyethyl)cyclohexanamine] gave an IC50 of 69.4 nM.

In turn, `COc1nn(-c2noc(C3CCN(C4CCN(C(C)=O)CC4)CC3)n2)c2c(F)cccc12` [Example 624, 1-{4-[3-(7-fluoro-3-methoxy-1H-indazol-1-yl)-1,2,4-oxadiazol-5-yl]-1,4′-bipiperidin-1′-yl}ethanone] came in with an IC50 in test [2] of less than 20 nM.

The term EC50 denotes the concentration giving half of the maximal effect. A higher EC50 goes with a need for much substance. One may read the IC50 as the concentration at which inhibition is half-maximal.

The values above are taken from US20140057895A1, “INDAZOLE- AND PYRROLOPYRIDINE-DERIVATIVE AND PHARMACEUTICAL USE THEREOF” (priority 2011, published 2014).
